This note sets out measurements from publication PMC7806260, “A gustatory receptor tuned to the steroid plant hormone brassinolide in Plutella xylostella (Lepidoptera: Plutellidae)” (eLife, 2020).

Structures are written as SMILES.

The test concerns the target T1, PxylGr34 (Plutella xylostella, UniProt A0ABQ7Q355).
T1 construct: gene JYU34_016516; no tag or co-receptor stated
T1 sequence (A0ABQ7Q355 1-418): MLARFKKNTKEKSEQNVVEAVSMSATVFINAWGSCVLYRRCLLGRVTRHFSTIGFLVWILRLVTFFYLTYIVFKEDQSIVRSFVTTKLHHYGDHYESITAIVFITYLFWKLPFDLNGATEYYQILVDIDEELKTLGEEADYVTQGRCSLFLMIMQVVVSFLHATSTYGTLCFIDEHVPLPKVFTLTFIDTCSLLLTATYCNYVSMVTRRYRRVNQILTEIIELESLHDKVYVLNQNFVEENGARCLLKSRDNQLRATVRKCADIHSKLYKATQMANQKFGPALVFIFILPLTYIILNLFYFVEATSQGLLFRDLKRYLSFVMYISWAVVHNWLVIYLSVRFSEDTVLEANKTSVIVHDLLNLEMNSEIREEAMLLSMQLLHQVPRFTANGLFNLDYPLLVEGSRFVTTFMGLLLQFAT
As to the kind of experiment: two-electrode voltage clamp, Xenopus oocytes. Type of test: cell-based. The note with it: inward current, agonist at 10^-4 M, pH 7.5, holding potential -80 mV. On the technique in general: Two-electrode voltage clamp holds a large cell at a set potential and records current.

In the case of `C=CCN=C=S` [Allyl isothiocyanate], the “two-electrode voltage clamp, Xenopus oocytes” value (“two-electrode voltage clamp” below) was “Oocytes expressing PxylGr34 showed weak responses to methyl jasmonate and allyl isothiocyanate”.

Turning to `CC(C)[C@H](C)[C@@H](O)[C@H](O)[C@@H](C)[C@H]1CC[C@H]2[C@@H]3COC(=O)[C@H]4C[C@H](O)[C@H](O)C[C@]4(C)[C@H]3CC[C@]12C` [Brassinolide], for the setting “dose series recorded”, the “two-electrode voltage clamp” value is given as “BL induced a strong response in the oocytes expressing PxylGr34”.

With `CC/C=C\C[C@H]1C(=O)CC[C@@H]1CC(=O)OC` [Methyl jasmonate], the “two-electrode voltage clamp” value was “Oocytes expressing PxylGr34 showed weak responses to methyl jasmonate and allyl isothiocyanate”.
